Test results as given in patent US7531575B2, “Method of modulating cellular activity and agents useful for same” (Eberhard-Karls-Universität Tübingin, priority 2002, dated 2009).

How the values were obtained:
Assay type in all cases: cell-based, murine
[1] = test system: MARCKS; experiment: phospho-MARCKS immunoblot in N9 microglia; conditions: N9 cells, co-exposed to TNL (pre-incubation 1 hr)
Source text: TNL was a generous gift of Kissei Pharmaceuticals, LPC (Escherichia coli, 0127:BS), phorbol 12-myristate 13-acetate (PMA) and dexamethasone (DEX) were obtained from Sigma, BAY 11-7082 (BAY), NF-κB SN50 inhibitory peptide (SN50), GF 109203X (GFX) and rottlerin (ROT) were purchased from Biomol. PD098059 (PD) was obtained from Calbiochem. Purified murine interferon-γ (IFN-γ) was purchased from Roche Diagnostics. N9 murine microglial cells were a kind gift from P. Ricciardi-Castagnoli (Righi, M. et al. 1989 supra). Cells were cultured in Dulbecco's modified Eagle's medium (DMEM) supplemented with 10% fetal calf serum (FCS), 2 mM glutamine, penicillin (100 unit/mL) and streptomycin (100 μg/mL) and maintained at 37° in an atmosphere of 5% CO2. Viability was assessed by crystal violet staining.
For the preparation of whole cell lysates, the cells were lysed in 0.1 M Tris-HCl (pH 7.2) containing 0.1% NP40, 0.1 mM EDTA and 5 μg/mL phenylmethylsulphonyl fluoride. Twenty micrograms protein was separated by 10-12% SDS-PAGE and electroblotted on nitrocellulose membrane. Equal loading was controlled by Ponceau S staining. […]

[2] = test system: NF-κB; experiment: NF-κB reporter assay, LPS-stimulated N9 microglia; conditions: N9 cells, LPS 10 μg/mL 4 hr, TNL pre-incubation 1 hr
Description: NF-κB reporter gene activity was assayed as previously described (Platten, M. et al. 2001 supra). Briefly, 8×10^3 cells/well were seeded in a 96-well plate and transfected with an NF-κB cis reporter gene plasmid (PathDetect No. 219077, Stratagene) encoding firefly luciferase using FuGene™ transfection reagent (Roche). pFC-MEKK (Stratagene) and pcDNA3 plasmids cotransfected with the reporter plasmid served as positive and negative controls. After freezing and thawing, the cells were lysed in 40 mM Tricine (pH 7.8) containing 50 mM NaCl, 2 mM EDTA, 1 mM MgSO4, 5 mM DTT and 1% Triton X-100. Lysates were assayed using Luciferase assay reagent (40 mM Tricine, pH 7.8, containing 10 mM MgSO4, 0.5 mM EDTA, 10 mM DTT, 0.5 mM coenzyme A, […] and 0.5 mM beetle luciferine). Luminescence was measured in LumiNunc™ plates (Nunc) in a LumimatPlus™ (EG&G Berthold). Values are expressed as relative light units (RLU).

[3] = test system: NF-κB; experiment: NF-κB reporter assay, IFN-γ-stimulated N9 microglia; conditions: N9 cells, IFN-γ 200 u ml, tranilast 30-300 μM, 4 h preincubation
Description: N9 murine microglial cells were seeded in a 96-well plate (8×10^3 well) and allowed to adhere for 24 h. The cells were transfected with an NK-κB cis-reporter gene plasmid (PathDetect* no. 219077, Stratagene) which encodes firefly luciferase in a NF-κB-dependent-manner. For each transfection, 0.2 μg DNA and 0.6 μl FuGene (Roche, Mannheim, Germany) were used. The cells were either co-transfected with 0.02 μg of the pFC-Mekk positive control plasmid, included in the NF-κB cis-reporting system from Stratagene, or with the pcDNA-3 plasmid, to maintain a constant amount of total DNA. In order to assess the unspecific background, a control transfection with pcDNA-3 only was included in all experiments. After 24 h the cells were washed twice with PBS (0.12 M NaCl, 0.01 M NaH2PO4×H2O, 0.031 M K2HPO4) and lysed using 40 μl well of Cell Lysis Buffer (mM):tricine pH 7.8 40, NaCl 50, EDTA 2, MgSO4 1, DTT 5, 1% Triton* X-100, all from Sigma. To optimize lysis, a freeze-thaw cycle was performed. Then the lysate was transferred to a LumiNunc™ plate (Nunc, Roskilde, Denmark). Luciferase assay reagent (100 μl) containing (mM): tricine pH 7.8 40, MgSO4 10, EDTA 0.5, DTT 10, coenzyme A 0.5 and beetle luciferin 0.5, ([…]), (all from Sigma) were added and luminescence was measured in a LumimatPlus (EG&G Berthold, Pforzheim, Germany). […]

SMILES: COc1ccc(/C=C/C(=O)Nc2ccccc2C(=O)O)cc1OC [tranilast, 2-[[3-(3,4-dimethoxyphenyl)-1-oxo-2-propenyl]amino]benzoic acid]
- MARCKS phosphorylation [1]: inhibited
- LPS-mediated NF-κB reporter gene activity [2]: did not suppress
- NF-κB reporter gene activity in response to IFN-γ [3]: concentration-dependent suppression
